Test results published in ChEMBL document CHEMBL4507319 (2021).

What was measured:
[1] = target: Serine/threonine-protein kinase pim-2 (Homo sapiens) (UniProt Q9P1W9); assay: Pim-2(h) Eurofins kinase panel; details: Compound concentration 1.0 uM
[2] = target: T1, Serine/threonine-protein kinase Sgk2 (Homo sapiens) (UniProt Q9HBY8); assay: SGK2(h) Eurofins kinase panel; details: Compound concentration 1.0 uM
T1 sequence (whole entry): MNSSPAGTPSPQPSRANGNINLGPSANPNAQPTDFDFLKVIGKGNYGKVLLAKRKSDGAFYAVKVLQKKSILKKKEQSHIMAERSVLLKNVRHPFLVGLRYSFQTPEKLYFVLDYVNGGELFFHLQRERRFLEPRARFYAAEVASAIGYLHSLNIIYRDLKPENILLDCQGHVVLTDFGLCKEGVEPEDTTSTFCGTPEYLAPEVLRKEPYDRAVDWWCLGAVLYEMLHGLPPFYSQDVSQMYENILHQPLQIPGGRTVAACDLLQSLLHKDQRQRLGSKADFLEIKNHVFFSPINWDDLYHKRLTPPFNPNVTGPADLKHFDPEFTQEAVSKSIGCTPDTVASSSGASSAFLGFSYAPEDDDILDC

[3] = target: eIF-2-alpha kinase GCN2 (Homo sapiens) (UniProt Q9P2K8); assay: GCN2(h) Eurofins kinase panel; details: Compound concentration 1.0 uM
[4] = target: T2, Testis-specific serine/threonine-protein kinase 3 (Homo sapiens) (UniProt Q96PN8); assay: TSSK3(h) Eurofins kinase panel; details: Compound concentration 1.0 uM
T2 sequence (whole entry): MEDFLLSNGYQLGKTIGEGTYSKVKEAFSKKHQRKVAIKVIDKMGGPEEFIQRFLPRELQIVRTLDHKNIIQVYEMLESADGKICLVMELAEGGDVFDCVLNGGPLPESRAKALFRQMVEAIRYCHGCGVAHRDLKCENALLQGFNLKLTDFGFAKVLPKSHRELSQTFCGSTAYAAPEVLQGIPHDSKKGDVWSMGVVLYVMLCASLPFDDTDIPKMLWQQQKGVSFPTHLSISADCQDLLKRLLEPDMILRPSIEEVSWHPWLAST

[5] = target: Tyrosine-protein kinase receptor UFO (Homo sapiens) (UniProt P30530); assay: Axl(h) Eurofins kinase panel; details: Compound concentration 1.0 uM
[6] = target: Tyrosine-protein kinase HCK (Homo sapiens) (UniProt P08631); assay: Hck(h) activated Eurofins kinase panel; details: Compound concentration 1.0 uM
[7] = target: Tyrosine-protein kinase Lck (Homo sapiens) (UniProt P06239); assay: Lck(h) activated Eurofins kinase panel; details: Compound concentration 1.0 uM
[8] = target: Calcium/calmodulin-dependent protein kinase type 1D (Homo sapiens) (UniProt Q8IU85); assay: CaMKIdelta(h) Eurofins kinase panel; details: Compound concentration 1.0 uM
[9] = target: Mitogen-activated protein kinase 10 (Homo sapiens) (UniProt P53779); assay: JNK3(h) Eurofins kinase panel; details: Compound concentration 1.0 uM
[10] = target: T3, Mitogen-activated protein kinase kinase kinase kinase 3 (Homo sapiens) (UniProt Q8IVH8); assay: MAP4K3(h) Eurofins kinase panel; details: Compound concentration 1.0 uM
T3 sequence (whole entry): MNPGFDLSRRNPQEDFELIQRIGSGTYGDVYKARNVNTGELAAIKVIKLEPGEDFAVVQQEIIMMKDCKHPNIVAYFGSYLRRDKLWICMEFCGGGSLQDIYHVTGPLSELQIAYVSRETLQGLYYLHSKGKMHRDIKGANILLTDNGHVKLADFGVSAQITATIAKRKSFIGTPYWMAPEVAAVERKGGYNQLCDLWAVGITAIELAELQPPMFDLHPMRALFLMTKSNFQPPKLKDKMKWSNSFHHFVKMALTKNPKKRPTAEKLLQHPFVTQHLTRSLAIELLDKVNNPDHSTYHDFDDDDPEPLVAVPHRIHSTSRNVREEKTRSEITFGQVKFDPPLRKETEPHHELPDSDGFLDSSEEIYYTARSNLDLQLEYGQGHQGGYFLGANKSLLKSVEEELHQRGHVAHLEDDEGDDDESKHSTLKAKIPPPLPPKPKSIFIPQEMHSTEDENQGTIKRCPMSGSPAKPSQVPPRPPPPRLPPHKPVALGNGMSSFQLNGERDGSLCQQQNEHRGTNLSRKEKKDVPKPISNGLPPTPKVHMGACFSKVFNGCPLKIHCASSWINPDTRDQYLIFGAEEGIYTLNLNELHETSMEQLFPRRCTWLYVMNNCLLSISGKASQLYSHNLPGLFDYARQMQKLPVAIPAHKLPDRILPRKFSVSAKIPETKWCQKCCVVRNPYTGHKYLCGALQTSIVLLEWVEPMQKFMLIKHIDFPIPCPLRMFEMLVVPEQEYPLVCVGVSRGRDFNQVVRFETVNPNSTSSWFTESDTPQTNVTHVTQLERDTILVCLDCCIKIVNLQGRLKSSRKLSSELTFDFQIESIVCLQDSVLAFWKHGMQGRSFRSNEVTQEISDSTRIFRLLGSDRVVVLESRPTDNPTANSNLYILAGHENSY

[11] = target: Protein kinase C theta type (Homo sapiens) (UniProt Q04759); assay: PKCtheta (h) Eurofins kinase panel; details: Compound concentration 1.0 uM
[12] = target: T4, Mitogen-activated protein kinase 13 (Homo sapiens) (UniProt O15264); assay: SAPK4(h) Eurofins kinase panel; details: Compound concentration 1.0 uM
T4 sequence (whole entry): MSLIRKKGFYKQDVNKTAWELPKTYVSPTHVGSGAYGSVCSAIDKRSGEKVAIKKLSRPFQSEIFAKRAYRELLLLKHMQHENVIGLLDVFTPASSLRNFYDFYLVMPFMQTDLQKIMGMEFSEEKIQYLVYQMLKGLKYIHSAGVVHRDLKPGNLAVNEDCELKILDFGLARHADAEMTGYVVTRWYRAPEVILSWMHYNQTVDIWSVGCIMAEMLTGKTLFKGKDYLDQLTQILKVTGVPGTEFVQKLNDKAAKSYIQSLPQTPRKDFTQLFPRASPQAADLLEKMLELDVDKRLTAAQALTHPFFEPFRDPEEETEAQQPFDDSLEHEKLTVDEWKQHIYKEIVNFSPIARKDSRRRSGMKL

[13] = target: SRSF protein kinase 3 (Homo sapiens) (UniProt Q9UPE1); assay: MSSK1(h) Eurofins kinase panel; details: Compound concentration 1.0 uM
[14] = target: T5, Serine/threonine-protein kinase ULK3 (Homo sapiens) (UniProt Q6PHR2); assay: ULK3(h) Eurofins kinase panel; details: Compound concentration 1.0 uM
T5 sequence (whole entry): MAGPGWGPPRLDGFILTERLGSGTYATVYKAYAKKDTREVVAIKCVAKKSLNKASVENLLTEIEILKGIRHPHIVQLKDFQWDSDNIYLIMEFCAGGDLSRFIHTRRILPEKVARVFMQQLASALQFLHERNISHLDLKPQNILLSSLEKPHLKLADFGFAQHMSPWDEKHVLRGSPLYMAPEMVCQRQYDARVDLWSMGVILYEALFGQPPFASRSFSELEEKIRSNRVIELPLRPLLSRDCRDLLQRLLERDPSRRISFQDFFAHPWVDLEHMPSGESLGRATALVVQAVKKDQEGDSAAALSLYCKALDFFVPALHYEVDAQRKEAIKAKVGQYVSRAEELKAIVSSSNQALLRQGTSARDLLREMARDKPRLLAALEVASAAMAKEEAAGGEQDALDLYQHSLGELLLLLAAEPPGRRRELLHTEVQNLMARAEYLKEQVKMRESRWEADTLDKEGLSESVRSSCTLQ

[15] = target: Ribosomal protein S6 kinase alpha-4 (Homo sapiens) (UniProt O75676); details: Compound concentration 1000.0 nM
Sequence of Ribosomal protein S6 kinase alpha-4 (Homo sapiens) (O75676 whole entry, looked up): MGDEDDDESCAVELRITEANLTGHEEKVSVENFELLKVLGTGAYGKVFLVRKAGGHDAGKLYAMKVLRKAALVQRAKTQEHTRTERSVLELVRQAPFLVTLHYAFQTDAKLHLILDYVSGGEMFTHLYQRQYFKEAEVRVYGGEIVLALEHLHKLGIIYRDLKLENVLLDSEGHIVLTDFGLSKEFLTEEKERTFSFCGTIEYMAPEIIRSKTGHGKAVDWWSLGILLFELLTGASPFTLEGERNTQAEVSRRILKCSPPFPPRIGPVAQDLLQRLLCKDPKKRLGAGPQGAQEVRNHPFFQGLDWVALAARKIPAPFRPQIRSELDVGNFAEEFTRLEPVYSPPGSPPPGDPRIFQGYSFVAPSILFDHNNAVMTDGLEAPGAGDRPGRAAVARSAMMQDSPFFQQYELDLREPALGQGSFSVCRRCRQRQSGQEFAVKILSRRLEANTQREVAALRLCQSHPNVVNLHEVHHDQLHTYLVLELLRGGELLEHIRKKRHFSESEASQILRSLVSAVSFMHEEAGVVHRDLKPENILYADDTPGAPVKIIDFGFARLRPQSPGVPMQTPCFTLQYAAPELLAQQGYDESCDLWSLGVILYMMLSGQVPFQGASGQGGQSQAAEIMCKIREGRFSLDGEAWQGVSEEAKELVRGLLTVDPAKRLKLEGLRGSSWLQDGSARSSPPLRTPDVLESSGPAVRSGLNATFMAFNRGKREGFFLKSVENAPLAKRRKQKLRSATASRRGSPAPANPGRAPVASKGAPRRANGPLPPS

Sequence of Protein kinase C theta type (Homo sapiens) (Q04759 whole entry, looked up): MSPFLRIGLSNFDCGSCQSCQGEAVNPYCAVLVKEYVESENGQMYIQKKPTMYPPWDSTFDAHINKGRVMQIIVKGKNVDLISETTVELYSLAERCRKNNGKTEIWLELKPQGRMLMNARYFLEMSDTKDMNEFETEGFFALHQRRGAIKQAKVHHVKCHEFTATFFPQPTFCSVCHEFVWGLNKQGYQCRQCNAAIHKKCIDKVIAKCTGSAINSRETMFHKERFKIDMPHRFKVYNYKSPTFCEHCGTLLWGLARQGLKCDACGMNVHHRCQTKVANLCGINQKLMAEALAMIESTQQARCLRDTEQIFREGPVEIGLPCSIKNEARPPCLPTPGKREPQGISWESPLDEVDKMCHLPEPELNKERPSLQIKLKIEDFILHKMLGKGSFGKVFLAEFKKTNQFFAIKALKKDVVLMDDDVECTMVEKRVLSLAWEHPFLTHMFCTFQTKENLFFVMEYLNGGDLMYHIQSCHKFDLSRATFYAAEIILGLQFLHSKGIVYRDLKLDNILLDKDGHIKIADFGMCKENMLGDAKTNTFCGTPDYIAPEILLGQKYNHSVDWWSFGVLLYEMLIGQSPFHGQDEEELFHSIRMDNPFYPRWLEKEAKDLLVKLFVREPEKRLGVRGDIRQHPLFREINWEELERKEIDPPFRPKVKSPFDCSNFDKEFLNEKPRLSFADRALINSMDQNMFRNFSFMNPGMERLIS
Sequence of Mitogen-activated protein kinase 10 (Homo sapiens) (P53779 whole entry): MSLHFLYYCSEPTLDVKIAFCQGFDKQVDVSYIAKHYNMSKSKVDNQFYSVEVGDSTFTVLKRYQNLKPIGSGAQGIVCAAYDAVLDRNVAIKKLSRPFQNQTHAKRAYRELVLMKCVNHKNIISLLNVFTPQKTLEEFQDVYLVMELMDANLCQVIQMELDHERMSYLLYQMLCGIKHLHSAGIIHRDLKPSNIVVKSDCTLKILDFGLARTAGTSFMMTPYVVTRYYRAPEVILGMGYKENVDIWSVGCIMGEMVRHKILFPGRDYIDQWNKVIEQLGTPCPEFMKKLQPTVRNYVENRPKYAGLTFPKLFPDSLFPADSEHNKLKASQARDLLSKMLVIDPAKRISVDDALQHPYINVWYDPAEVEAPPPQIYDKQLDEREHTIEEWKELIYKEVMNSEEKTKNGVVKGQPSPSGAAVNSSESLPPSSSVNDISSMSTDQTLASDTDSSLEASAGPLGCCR
Sequence of Serine/threonine-protein kinase pim-2 (Homo sapiens) (Q9P1W9 whole entry, looked up): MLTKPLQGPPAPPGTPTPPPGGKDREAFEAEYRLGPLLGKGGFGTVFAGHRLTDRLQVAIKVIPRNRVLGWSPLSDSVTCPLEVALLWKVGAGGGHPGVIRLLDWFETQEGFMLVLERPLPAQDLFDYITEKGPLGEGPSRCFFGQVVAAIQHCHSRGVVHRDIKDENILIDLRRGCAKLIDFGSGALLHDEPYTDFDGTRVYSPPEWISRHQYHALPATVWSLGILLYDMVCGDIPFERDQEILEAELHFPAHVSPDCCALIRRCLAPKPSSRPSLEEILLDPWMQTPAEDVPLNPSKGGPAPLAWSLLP
Sequence of Tyrosine-protein kinase receptor UFO (Homo sapiens) (P30530 whole entry): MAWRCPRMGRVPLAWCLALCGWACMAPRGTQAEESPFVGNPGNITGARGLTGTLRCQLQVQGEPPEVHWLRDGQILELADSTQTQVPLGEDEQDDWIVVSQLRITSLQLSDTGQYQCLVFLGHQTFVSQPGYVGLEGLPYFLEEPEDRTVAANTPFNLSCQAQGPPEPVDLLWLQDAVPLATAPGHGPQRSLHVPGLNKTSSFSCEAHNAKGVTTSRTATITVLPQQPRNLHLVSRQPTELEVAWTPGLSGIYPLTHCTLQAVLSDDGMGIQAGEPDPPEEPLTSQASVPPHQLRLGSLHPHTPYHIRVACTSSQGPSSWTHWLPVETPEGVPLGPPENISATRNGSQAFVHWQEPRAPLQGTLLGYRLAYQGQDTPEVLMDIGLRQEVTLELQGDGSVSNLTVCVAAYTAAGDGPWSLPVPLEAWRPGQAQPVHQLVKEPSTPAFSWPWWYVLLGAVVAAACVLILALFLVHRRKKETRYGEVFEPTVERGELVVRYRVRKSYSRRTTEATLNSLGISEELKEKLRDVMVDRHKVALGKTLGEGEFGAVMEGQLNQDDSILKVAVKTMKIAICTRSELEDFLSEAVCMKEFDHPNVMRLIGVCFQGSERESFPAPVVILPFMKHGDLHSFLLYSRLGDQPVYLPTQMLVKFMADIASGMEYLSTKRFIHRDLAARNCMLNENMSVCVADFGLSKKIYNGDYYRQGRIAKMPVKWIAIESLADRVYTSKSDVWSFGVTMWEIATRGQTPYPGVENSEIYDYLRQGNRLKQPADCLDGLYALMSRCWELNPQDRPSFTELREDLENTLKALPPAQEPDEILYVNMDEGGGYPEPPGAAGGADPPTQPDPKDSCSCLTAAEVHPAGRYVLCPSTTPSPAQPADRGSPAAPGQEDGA
Sequence of eIF-2-alpha kinase GCN2 (Homo sapiens) (Q9P2K8 whole entry): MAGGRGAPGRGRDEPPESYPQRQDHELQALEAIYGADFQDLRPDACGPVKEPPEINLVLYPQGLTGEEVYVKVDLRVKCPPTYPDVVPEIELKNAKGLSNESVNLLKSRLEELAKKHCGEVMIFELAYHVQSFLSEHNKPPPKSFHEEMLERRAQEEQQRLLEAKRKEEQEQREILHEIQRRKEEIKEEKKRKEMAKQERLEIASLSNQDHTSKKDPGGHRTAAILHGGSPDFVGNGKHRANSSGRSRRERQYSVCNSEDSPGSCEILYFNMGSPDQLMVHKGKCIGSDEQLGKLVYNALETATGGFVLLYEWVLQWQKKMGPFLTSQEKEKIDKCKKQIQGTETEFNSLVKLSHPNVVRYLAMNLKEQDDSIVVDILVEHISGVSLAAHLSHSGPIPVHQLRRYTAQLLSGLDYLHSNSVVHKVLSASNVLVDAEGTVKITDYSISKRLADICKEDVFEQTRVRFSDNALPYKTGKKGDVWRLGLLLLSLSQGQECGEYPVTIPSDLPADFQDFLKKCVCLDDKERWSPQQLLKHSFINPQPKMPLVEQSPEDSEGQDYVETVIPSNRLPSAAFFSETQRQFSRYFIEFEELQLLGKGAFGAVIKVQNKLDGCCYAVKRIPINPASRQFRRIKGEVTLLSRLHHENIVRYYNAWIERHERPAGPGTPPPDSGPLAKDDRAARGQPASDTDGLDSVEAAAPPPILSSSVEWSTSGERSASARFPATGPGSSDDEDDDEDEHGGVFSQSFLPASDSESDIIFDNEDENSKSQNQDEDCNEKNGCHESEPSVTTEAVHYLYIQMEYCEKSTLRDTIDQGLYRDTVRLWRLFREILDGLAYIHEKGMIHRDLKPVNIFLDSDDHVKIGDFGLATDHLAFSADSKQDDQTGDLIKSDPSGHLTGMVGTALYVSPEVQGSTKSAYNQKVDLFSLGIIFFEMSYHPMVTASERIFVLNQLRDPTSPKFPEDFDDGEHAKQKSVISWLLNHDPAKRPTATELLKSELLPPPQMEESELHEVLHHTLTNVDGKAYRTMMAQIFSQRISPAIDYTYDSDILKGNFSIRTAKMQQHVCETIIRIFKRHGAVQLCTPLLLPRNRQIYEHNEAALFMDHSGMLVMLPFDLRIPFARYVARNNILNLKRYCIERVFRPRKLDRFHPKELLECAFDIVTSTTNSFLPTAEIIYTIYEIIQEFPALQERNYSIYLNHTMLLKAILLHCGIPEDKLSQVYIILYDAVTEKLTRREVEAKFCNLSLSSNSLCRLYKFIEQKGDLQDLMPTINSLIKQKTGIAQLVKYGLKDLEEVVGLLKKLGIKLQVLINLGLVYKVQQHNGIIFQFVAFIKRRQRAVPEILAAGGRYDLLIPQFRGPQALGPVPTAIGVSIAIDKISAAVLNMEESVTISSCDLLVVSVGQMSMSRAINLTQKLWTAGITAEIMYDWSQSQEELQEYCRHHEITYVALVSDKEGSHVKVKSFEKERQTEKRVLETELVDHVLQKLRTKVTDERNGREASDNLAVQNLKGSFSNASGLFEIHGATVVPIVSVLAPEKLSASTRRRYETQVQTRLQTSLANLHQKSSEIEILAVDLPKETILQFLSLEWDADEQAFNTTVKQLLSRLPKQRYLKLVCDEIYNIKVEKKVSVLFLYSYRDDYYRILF

CCc1ccccc1C(=O)Nc1n[nH]c2c(C)c(F)c(C3C(C#N)=C(C)N(C)C(C)=C3C#N)cc12 [BAY-3827]
inactive: % residual kinase activity [1] 102% | % residual kinase activity [2] 70% | % residual kinase activity [3] 100% | % residual kinase activity [4] 110% | % residual kinase activity [5] 100% | % residual kinase activity [6] 109% | % residual kinase activity [7] 108% | % residual kinase activity [8] 104% | % residual kinase activity [9] 72% | % residual kinase activity [10] 78% | % residual kinase activity [11] 33% | % residual kinase activity [12] 111% | % residual kinase activity [13] 39% | % residual kinase activity [14] 59%

CC1=C(C#N)C(c2ccc3c(c2)c(NC(=O)c2ccccc2C)nn3C)C(C#N)=C(C)N1 [BAY-974]
inactive: residual activity [15] 100%
